Where a name gives a salt, the structure may show the parent alone.
Tests used:
[1] = test system: human adult dermal fibroblasts HDFa; assay: HS and Lamp1 immunofluorescence in control fibroblasts HDFa; type: cell-based; conditions: 20 μM, 48 hours
Experimental: (§1) To verify whether the selected iminosugars could exert the same effects also on the fibroblasts of patients affected by Sanfilippo disease, human adult dermal fibroblasts HDFa (purchased from Sigma-Aldrich) were used as control, and fibroblasts of patients affected by Sanfilippo A and B (MPS IIIA and IIIB) were used as disease model.
(§2) Cells were cultured in the presence of the selected L-iminosugars at a dosage of 20 μM and after 48 hours were treated for HS and Lamp1 immunofluorescence. Treatment with L-iminosugars had no effect on control HDFa (Table 3).
(§3) Cells were grown in the presence of the iminosugars D-DNJ, D-NBDNJ, D-AMPDNM and D-MONDNJ at the dosage of 20 μM and after 48 hours were treated for HS and Lamp1 immunofluorescence. Treatment with D-iminosugars had no effect on HDFa and fibroblasts of patients affected by Sanfilippo A and B (MPS IIIA and MPS IIIB) both on HS and lysosome accumulation (Table 4).

[2] = test system: fibroblasts of patients affected by Sanfilippo A (MPS IIIA); assay: HS and Lamp1 immunofluorescence in Sanfilippo A patient fibroblasts; type: cell-based, human; conditions: 20 μM, 48 hours; for Cells positive for HS (%) / Cells positive for Lamp1 (%) / Relative fluorescence intensity compared to HDFa, HS / Relative fluorescence intensity compared to HDFa, Lamp1: MPS-IIIA fibroblasts; for Effect on HS and lysosome (Lamp1) accumulation, in words: Sanfilippo A (MPS IIIA) patient fibroblasts
Excerpt: as §1
(§4) The human cell lines, fibroblasts, from patients with MPS (Sanfilippo disease) used in the examples were obtained from the G. Gaslini Institute of Genoa, “Cell Line and DNA Biobank from Patients Affected by Genetic Diseases”-Telethon Genetic Biobank Network—Telethon research service. These cells are classified with identification codes and by type of disease without allowing patient identification. Cells were collected from the patients, at the Gaslini Institute, with informed consent to the collection extended to conservation and its possible use, for diagnosis and/or research purposes according to current legislation as required by the guidelines followed by the Telethon biobanks. The Network operates abiding by the Italian Privacy and Data Protection Laws in force, including: Italian Data Protection Authority, Personal Data Protection Code, Legislative Decree no. 196, 30 Jun. 2003, published in Official Gazette No. 174 of the Italian Republic, 29 Jul. 2003; Italian Data Protection Authority, General Authorization for the processing of genetic data, 24 Jun. 2011, published in Official Gazette No. 159 of Italian Republic, 11 Jul. 2011.
as §2, §3

[3] = test system: fibroblasts of patients affected by Sanfilippo B (MPS IIIB); assay: HS and Lamp1 immunofluorescence in Sanfilippo B patient fibroblasts; type: cell-based, human; conditions: 20 μM, 48 hours; for Cells positive for HS (%) / Cells positive for Lamp1 (%) / Relative fluorescence intensity compared to HDFa, HS / Relative fluorescence intensity compared to HDFa, Lamp1: MPS-IIIB fibroblasts; for Effect on HS and lysosome (Lamp1) accumulation, in words: Sanfilippo B (MPS IIIB) patient fibroblasts
Excerpt: as §1, §4, §2, §3

[4] = test system: HeLa tumor epithelial cells; assay: HeLa cell proliferation assay; type: cell-based; conditions: after 48 hours
Experimental: Furthermore, treatment with the L-deoxyminosugars L-DNJ, L-NBDNJ, L-AMPDNM and L-MONDNJ caused a decrease of the number of HeLa cells after 48 hours as shown by the cell proliferation assay reported in Table 6.

[5] = test system: NAGLU-silenced clone (cl5) of human neuroblastoma cell line SK-NBE; assay: Immunofluorescence against beta-amyloid peptide 1-42 in NAGLU-silenced SK-NBE clone; type: cell-based; conditions: 20 μM, 48 hours
Experimental: The clone (c15) stably silenced for NAGLU, the causative gene of MPS IIIB, is able to mimic the features of neurodegenerative diseases as it accumulates beta-amyloid fibers in the cytoplasm. In fact, Sanfilippo Syndrome is also defined as “childhood Alzheimer”.
The diseased clone (c15) was grown in the presence of L-DNJ, L-NBDNJ, L-AMPDNM and L-MONDNJ and the corresponding enantiomers D-DNJ, D-NBDNJ, D-AMPDNM and D-MONDNJ at a dosage of 20 μM and after 48 hours were processed by immunofluorescence against the beta-amyloid peptide 1-42. […] On contrary, treatment with the corresponding D-enantiomers has no effect on the reduction of the accumulation of amyloid fibers compared to the untreated clone (mock) (Table 7).

[6] = test system: NAGLU-silenced clone (cl5) of human neuroblastoma cell line SK-NBE; assay: Lamp1 immunofluorescence (lysosomal accumulation) in NAGLU-silenced SK-NBE clone, Sanfilippo B model; type: cell-based; conditions: 48 hours; for Cells positive for Lamp1 (%) / Relative Lamp1 fluorescence intensity: cl5 clone, 20 μM; for Effect on lysosomal enlargement and accumulation (lysosomal phenotype), in words: clone 5, 20 μM
Excerpt: (§5) To study the effects of the compounds on the lysosomal dysfunctions in a neuronal model of Sanfilippo B disease (MPS IIIB), we recently generated stable clones of the human neuroblastoma cell line SK-NBE silenced for the NAGLU gene causative of MPS IIIB [De Pasquale V, et al. (2021). Biochim Biophys Acta Mol Cell Res. 1868, 119113.]. Mimicking the features of Sanfilippo B disease, silencing of NAGLU causes accumulation of heparan sulfate and accumulation of lysosomes in the cytoplasm of stable SK-NBE clones compared to the control (WT) clone.
(§6) Therefore, NAGLU-silenced clone (c15) and control clone (WT) were selected to test the effect of L-deoxyminosugars (L-DNJ, L-NBDNJ, L-NNDNJ, L-HPDNJ, L-NPDNJ, L-AMPDNM and L-MONDNJ) in the hydrochloride form on the lysosomal phenotype of our cell model of Sanfilippo B (MPS IIIB).
(§7) Clone 5 was cultured in the presence of 20 μM of each L-deoxyminosugar under normal growth conditions and after 48 hours the lysosomal accumulation was evaluated with immunofluorescence technique by using a specific antibody against Lamp1 (lysosomal marker). […] Furthermore, upon treatment with the active L-deoxyminosugar the lysosomes are no longer concentrated in the perinuclear region of the cells, as occurs in several lysosomal diseases, but they are physiologically distributed throughout the cytoplasm.

[7] = test system: control clone (WT) of human neuroblastoma cell line SK-NBE; assay: Lamp1 immunofluorescence in control (WT) SK-NBE clone; type: cell-based; conditions: 20 μM, 48 hours
Excerpt: as §5, §6, §7

[8] = test system: NAGLU-silenced clone (cl5) of human neuroblastoma cell line SK-NBE; assay: Heparan sulfate (HS) immunofluorescence in NAGLU-silenced SK-NBE clone, Sanfilippo B model; type: cell-based; conditions: 48 hours; for Cells positive for HS (%) / Relative HS fluorescence intensity: cl5 clone, 20 μM; for Effect on HS staining / HS accumulation, in words: clone 5, 20 μM
Excerpt: as §5
Clone 5 was grown in the presence of 20 μM of each L-iminosugar under normal growth conditions and after 48 hours the accumulation of heparan sulfate (HS) was evaluated by immunofluorescence staining for HS.

[9] = test system: control clone (WT) of human neuroblastoma cell line SK-NBE; assay: Heparan sulfate (HS) immunofluorescence in control (WT) SK-NBE clone; type: cell-based; conditions: 20 μM, 48 hours
[10] = test system: HeLa tumor epithelial cells; assay: HS immunostaining in HeLa cells; type: cell-based; conditions: 48 hours
Experimental: To test whether treatment with the selected L-deoxyminosugars (L-DNJ, L-NBDNJ, L-AMPDNM and L-MONDNJ) could interfere with HS synthesis we selected a cell line not mutated for NAGLU and highly decorated by heparan sulfate on the cell membrane. For this purpose, HeLa tumor epithelial cells (purchased from ATCC) were cultured for 48 hours in the presence of the selected L-iminosugars and the amount of HS was evaluated by immunostaining.

SMILES	Cells positive for HS (%) [1] [%]	Cells positive for Lamp1 (%) [1] [%]	Cells positive for HS (%) [2] [%]	Cells positive for Lamp1 (%) [2] [%]	Cells positive for HS (%) [3] [%]	Cells positive for Lamp1 (%) [3] [%]	Cell number [4]	Relative amyloid fluorescence intensity [5]	Cells positive for Lamp1 (%) [6] [%]	Relative Lamp1 fluorescence intensity [6]	Effect on lysosomal enlargement and accumulation (lysosomal phenotype), in words [6]	Cells positive for Lamp1 (%) [7] [%]	Relative Lamp1 fluorescence intensity [7]	Cells positive for HS (%) [8] [%]	Relative HS fluorescence intensity [8]	Effect on HS staining / HS accumulation, in words [8]	Cells positive for HS (%) [9] [%]	Relative HS fluorescence intensity [9]	Relative fluorescence intensity compared to HDFa, HS [1]	Relative fluorescence intensity compared to HDFa, Lamp1 [1]	also measured
COCCCCCCCCCN1C[C@H](O)[C@@H](O)[C@H](O)[C@H]1CO.Cl [D-MONDNJ•HCl]	5.0	5.3	99.2	95.2	95.8	93.8	5.0 · 10^5	1.05	–	–	–	–	–	–	–	–	–	–	–	–	–
CCCCCCCCCN1C[C@@H](O)[C@H](O)[C@@H](O)[C@@H]1CO [L-NNDNJ•HCl]	–	–	–	–	–	–	4.2 · 10^5	–	85	2.70	did not show any activity	4.1	1.04	97.5	3.71	did not show any activity	4.1	0.94	1.0	1.0	Relative fluorescence intensity compared to HDFa, HS [2]: 4.9; Relative fluorescence intensity compared to HDFa, Lamp1 [2]: 3.0; Effect on HS and lysosome (Lamp1) accumulation, in words [2]: did not show any activity; Relative fluorescence intensity compared to HDFa, HS [3]: 5.8; Relative fluorescence intensity compared to HDFa, Lamp1 [3]: 3.1; Effect on HS and lysosome (Lamp1) accumulation, in words [3]: did not show any activity; Effect on HS accumulation on the HeLa cell membrane, in words [10]: did not show any activity; Relative HS fluorescence intensity [10]: 0.88
OC[C@H]1NC[C@H](O)[C@@H](O)[C@@H]1O [D-DNJ•HCl, deoxynojirimycin]	2.4	5.0	97.3	95.0	94.9	92.5	4.4 · 10^5	0.99	–	–	–	–	–	–	–	–	–	–	–	–	–
OC[C@@H]1[C@@H](O)[C@H](O)[C@@H](O)CN1CCCCCOCC12CC3CC(CC(C3)C1)C2 [D-AMPDNM•HCl]	4.9	5.1	98.7	96.8	96.4	94.6	5.1 · 10^5	1.02	–	–	–	–	–	–	–	–	–	–	–	–	–
CCCCCCOCCCCCN1C[C@@H](O)[C@H](O)[C@@H](O)[C@@H]1CO [L-HPDNJ•HCl]	–	–	–	–	–	–	4.3 · 10^5	–	87	2.10	did not show any activity	4.8	1.00	95.1	3.60	did not show any activity	2.4	0.95	1.0	1.0	Relative fluorescence intensity compared to HDFa, HS [2]: 5.4; Relative fluorescence intensity compared to HDFa, Lamp1 [2]: 3.1; Effect on HS and lysosome (Lamp1) accumulation, in words [2]: did not show any activity; Relative fluorescence intensity compared to HDFa, HS [3]: 5.7; Relative fluorescence intensity compared to HDFa, Lamp1 [3]: 3.0; Effect on HS and lysosome (Lamp1) accumulation, in words [3]: did not show any activity; Effect on HS accumulation on the HeLa cell membrane, in words [10]: did not show any activity; Relative HS fluorescence intensity [10]: 0.95
CCCCCCCCCOCCCCCN1C[C@@H](O)[C@H](O)[C@@H](O)[C@@H]1CO [L-NPDNJ•HCl]	–	–	–	–	–	–	4.7 · 10^5	–	84	2.65	did not show any activity	3.7	1.10	97.5	3.65	did not show any activity	4.4	0.93	1.0	1.0	Relative fluorescence intensity compared to HDFa, HS [2]: 5.2; Relative fluorescence intensity compared to HDFa, Lamp1 [2]: 2.8; Effect on HS and lysosome (Lamp1) accumulation, in words [2]: did not show any activity; Relative fluorescence intensity compared to HDFa, HS [3]: 5.9; Relative fluorescence intensity compared to HDFa, Lamp1 [3]: 3.3; Effect on HS and lysosome (Lamp1) accumulation, in words [3]: did not show any activity; Effect on HS accumulation on the HeLa cell membrane, in words [10]: did not show any activity; Relative HS fluorescence intensity [10]: 1.19

Source: patent US20250255856A1, “THERAPEUTIC COMPOSITIONS WITH IMINO SUGARS FOR THE TREATMENT OF DISEASES WITH ACCUMULATION OF HEPARAN SULFATE” (priority 2022, published 2025)
